In ChEMBL document CHEMBL4725357, “Elucidating the Structural Requirement of Uridylpeptide Antibiotics for Antibacterial Activity” (J Med Chem, 2020):
pIC50: −log10 of the molar value. Values after ≈ are worked out from the molar mass of the structure shown. Values belong to the compound of their own block, whether it stands above or below them.

Legend:
[1] = Inhibition of Staphylococcus aureus MraY using UDPMurNAc-dansylpentapeptide as substrate incubated for 3 hrs by fluorescence method
Pseudomonas aeruginosa [2] = assay: Antibacterial activity against Pseudomonas aeruginosa PAO1 incubated for 18 hrs by CLSI based broth microdilution method; format: functional
Pseudomonas aeruginosa [3] = assay: Antibacterial activity against Pseudomonas aeruginosa serotype M IID5018 incubated for 18 hrs by CLSI based broth microdilution method; format: functional
Pseudomonas aeruginosa [4] = assay: Antibacterial activity against Pseudomonas aeruginosa serotype L IID5141 incubated for 18 hrs by CLSI based broth microdilution method; format: functional
Pseudomonas aeruginosa [5] = assay: Antibacterial activity against Pseudomonas aeruginosa ATCC 27853 incubated for 18 hrs by CLSI based broth microdilution method; format: functional
Pseudomonas aeruginosa [6] = assay: Antibacterial activity against Pseudomonas aeruginosa serotype K IID1012 incubated for 18 hrs by CLSI based broth microdilution method; format: functional
Pseudomonas aeruginosa [7] = assay: Antibacterial activity against Pseudomonas aeruginosa serotype A IID1001 incubated for 18 hrs by CLSI based broth microdilution method; format: functional
Pseudomonas aeruginosa [8] = assay: Antibacterial activity against Pseudomonas aeruginosa serotype G IID1020 incubated for 18 hrs by CLSI based broth microdilution method; format: functional
Pseudomonas aeruginosa [9] = assay: Antibacterial activity against Pseudomonas aeruginosa isolate 1483 incubated for 18 hrs by CLSI based broth microdilution method; format: functional
HepG2 = assay: Cytotoxicity against human HepG2 cells after 24 hrs by CCK-8 assay; format: cell-based; settings: HepG2, 24 h
Pseudomonas aeruginosa [10] = assay: Antibacterial activity against multidrug-resistant Pseudomonas aeruginosa MDRP62 incubated for 18 hrs by CLSI based broth microdilution method; format: functional
Pseudomonas aeruginosa [11] = assay: Antibacterial activity against Pseudomonas aeruginosa serotype B IID1002 incubated for 18 hrs by CLSI based broth microdilution method; format: functional
Pseudomonas aeruginosa [12] = assay: Antibacterial activity against Pseudomonas aeruginosa serotype B IID1007 incubated for 18 hrs by CLSI based broth microdilution method; format: functional
Pseudomonas aeruginosa [13] = assay: Antibacterial activity against Pseudomonas aeruginosa isolate 1485 incubated for 18 hrs by CLSI based broth microdilution method; format: functional
Pseudomonas aeruginosa [14] = assay: Antibacterial activity against Pseudomonas aeruginosa serotype F IID1006 incubated for 18 hrs by CLSI based broth microdilution method; format: functional
Pseudomonas aeruginosa [15] = assay: Antibacterial activity against Pseudomonas aeruginosa serotype J IID1011 incubated for 18 hrs by CLSI based broth microdilution method; format: functional
[16] = Inhibition of Staphylococcus aureus MraY using UDPMurNAc-dansylpentapeptide as substrate incubated for 3 to 4 hrs by fluorescence method
Pseudomonas aeruginosa [17] = assay: Antibacterial activity against Pseudomonas aeruginosa serotype C IID1021 incubated for 18 hrs by CLSI based broth microdilution method; format: functional
Pseudomonas aeruginosa [18] = assay: Antibacterial activity against Pseudomonas aeruginosa serotype H IID1009 incubated for 18 hrs by CLSI based broth microdilution method; format: functional
Pseudomonas aeruginosa [19] = assay: Antibacterial activity against Pseudomonas aeruginosa isolate 9728b incubated for 18 hrs by CLSI based broth microdilution method; format: functional
Pseudomonas aeruginosa [20] = assay: Antibacterial activity against Pseudomonas aeruginosa serotype B IID5004 incubated for 18 hrs by CLSI based broth microdilution method; format: functional
Pseudomonas aeruginosa [21] = assay: Antibacterial activity against Pseudomonas aeruginosa serotype D IID1004 incubated for 18 hrs by CLSI based broth microdilution method; format: functional
Pseudomonas aeruginosa [22] = assay: Antibacterial activity against Pseudomonas aeruginosa serotype I IID1010 incubated for 18 hrs by CLSI based broth microdilution method; format: functional
Pseudomonas aeruginosa [23] = assay: Antibacterial activity against Pseudomonas aeruginosa serotype B IID1013 incubated for 18 hrs by CLSI based broth microdilution method; format: functional
Pseudomonas aeruginosa [24] = assay: Antibacterial activity against Pseudomonas aeruginosa isolate 2931 incubated for 18 hrs by CLSI based broth microdilution method; format: functional
Pseudomonas aeruginosa [25] = assay: Antibacterial activity against Pseudomonas aeruginosa isolate 2867 incubated for 18 hrs by CLSI based broth microdilution method; format: functional
Pseudomonas aeruginosa [26] = assay: Antibacterial activity against Pseudomonas aeruginosa serotype E IID1130 incubated for 18 hrs by CLSI based broth microdilution method; format: functional
Pseudomonas aeruginosa [27] = assay: Antibacterial activity against Pseudomonas aeruginosa serotype M IID1015 incubated for 18 hrs by CLSI based broth microdilution method; format: functional

Structure (SMILES): C[C@H](N)C(=O)N(C)[C@@H](C)[C@H](NC(=O)[C@H](C)NC(=O)N[C@@H](Cc1c[nH]c2ccccc12)C(=O)O)C(=O)N/C=C1\O[C@@H](n2ccc(=O)[nH]c2=O)[C@H](O)[C@@H]1O
MIC (Pseudomonas aeruginosa [3]): > 128 µg/mL | MIC (Pseudomonas aeruginosa [4]): 32 µg/mL (≈ 44 µM) | MIC (Pseudomonas aeruginosa [5]): 32 µg/mL (≈ 44 µM) | MIC (Pseudomonas aeruginosa [6]): 64 µg/mL (≈ 87.9 µM) | pIC50 [1]: 7.36 | MIC (Pseudomonas aeruginosa [7]): > 128 µg/mL | MIC (Pseudomonas aeruginosa [8]): > 128 µg/mL | MIC (Pseudomonas aeruginosa [9]): > 128 µg/mL | pIC50 (HepG2): < 4.00 | MIC (Pseudomonas aeruginosa [10]): > 128 µg/mL | MIC (Pseudomonas aeruginosa [11]): > 128 µg/mL | MIC (Pseudomonas aeruginosa [12]): > 128 µg/mL | MIC (Pseudomonas aeruginosa [13]): 16 µg/mL (≈ 22 µM) | MIC (Pseudomonas aeruginosa [14]): > 128 µg/mL | MIC (Pseudomonas aeruginosa [15]): > 128 µg/mL | pIC50 [16]: 7.38 | MIC (Pseudomonas aeruginosa [17]): 16 µg/mL (≈ 22 µM) | MIC (Pseudomonas aeruginosa [18]): 32 µg/mL (≈ 44 µM) | MIC (Pseudomonas aeruginosa [19]): > 128 µg/mL | MIC (Pseudomonas aeruginosa [20]): 64 µg/mL (≈ 87.9 µM) | MIC (Pseudomonas aeruginosa [21]): > 128 µg/mL | MIC (Pseudomonas aeruginosa [22]): > 128 µg/mL | MIC (Pseudomonas aeruginosa [23]): > 128 µg/mL | MIC (Pseudomonas aeruginosa [24]): > 128 µg/mL | MIC (Pseudomonas aeruginosa [25]): 32 µg/mL (≈ 44 µM) | MIC (Pseudomonas aeruginosa [26]): > 128 µg/mL | MIC (Pseudomonas aeruginosa [2]): 16 µg/mL (≈ 22 µM) | MIC (Pseudomonas aeruginosa [27]): > 128 µg/mL

Structure (SMILES): C[C@@H]([C@H](NC(=O)CNC(=O)N[C@@H](Cc1c[nH]c2ccccc12)C(=O)O)C(=O)N/C=C1\O[C@@H](n2ccc(=O)[nH]c2=O)[C@H](O)[C@@H]1O)N(C)C(=O)[C@@H](N)Cc1cccc(O)c1
pIC50 [1]: 8.38 | MIC (Pseudomonas aeruginosa [2]): > 128 µg/mL

Structure (SMILES): C[C@@H]([C@H](NC(=O)[C@H](Cc1ccc(O)cc1)NC(=O)N[C@@H](Cc1c[nH]c2ccccc12)C(=O)O)C(=O)N/C=C1\O[C@@H](n2ccc(=O)[nH]c2=O)[C@H](O)[C@@H]1O)N(C)C(=O)[C@@H](N)Cc1cccc(O)c1
pIC50 [1]: 9.66 | MIC (Pseudomonas aeruginosa [2]): 16 µg/mL (≈ 17.5 µM)

Structure (SMILES): CC(C)C[C@H](NC(=O)[C@@H](NC(=O)N[C@H](C(=O)O)C(C)C)[C@@H]1CCNC(=N)N1)C(=O)NCCCN[C@H](C(=O)O)[C@H](O[C@@H]1O[C@H](CN)[C@@H](O)[C@H]1O)[C@H]1O[C@@H](n2ccc(=O)[nH]c2=O)[C@H](O)[C@@H]1O [MURAMYCIN D2]
pIC50 [1]: 8.55

Structure (SMILES): C[C@@H]([C@H](NC(=O)[C@H](Cc1ccccc1)NC(=O)N[C@@H](Cc1c[nH]c2ccccc12)C(=O)O)C(=O)N/C=C1\O[C@@H](n2ccc(=O)[nH]c2=O)[C@H](O)[C@@H]1O)N(C)C(=O)[C@@H](N)Cc1cccc(O)c1
pIC50 [1]: 9.22 | MIC (Pseudomonas aeruginosa [2]): 16 µg/mL (≈ 17.9 µM)

Structure (SMILES): C[C@@H]([C@H](NC(=O)[C@H](Cc1c[nH]c2ccccc12)NC(=O)N[C@@H](Cc1c[nH]c2ccccc12)C(=O)O)C(=O)N/C=C1\O[C@@H](n2ccc(=O)[nH]c2=O)[C@H](O)[C@@H]1O)N(C)C(=O)[C@@H](N)Cc1cccc(O)c1
pIC50 [1]: 9.36 | MIC (Pseudomonas aeruginosa [2]): 32 µg/mL (≈ 34.2 µM)

Structure (SMILES): CCCCCCCCCCCCCCC[C@H](NC(=O)[C@@H](NC(=O)N[C@H](C(=O)O)C(C)C)[C@@H]1CCNC(=N)N1)C(=O)NCCCN[C@H](C(=O)O)[C@H](O[C@@H]1O[C@H](CN)[C@@H](O)[C@H]1O)[C@H]1O[C@@H](n2ccc(=O)[nH]c2=O)[C@H](O)[C@@H]1O
pIC50 [1]: 8.96

The next lines start with the values.

pIC50 [1]: 8.74 | MIC (Pseudomonas aeruginosa [2]): 32 µg/mL (≈ 37.7 µM)
Structure (SMILES): C[C@@H](O)[C@H](NC(=O)N[C@@H](Cc1c[nH]c2ccccc12)C(=O)O)C(=O)N[C@H](C(=O)N/C=C1\O[C@@H](n2ccc(=O)[nH]c2=O)[C@H](O)[C@@H]1O)[C@H](C)N(C)C(=O)[C@@H](N)Cc1cccc(O)c1

pIC50 [1]: 8.89 | MIC (Pseudomonas aeruginosa [2]): 128 µg/mL (≈ 146 µM)
Structure (SMILES): C[C@@H]([C@H](NC(=O)[C@H](CCC(N)=O)NC(=O)N[C@@H](Cc1c[nH]c2ccccc12)C(=O)O)C(=O)N/C=C1\O[C@@H](n2ccc(=O)[nH]c2=O)[C@H](O)[C@@H]1O)N(C)C(=O)[C@@H](N)Cc1cccc(O)c1

pIC50 [1]: 8.85 | MIC (Pseudomonas aeruginosa [2]): 16 µg/mL (≈ 18.6 µM)
Structure (SMILES): CC[C@H](C)[C@H](NC(=O)N[C@@H](Cc1c[nH]c2ccccc12)C(=O)O)C(=O)N[C@H](C(=O)N/C=C1\O[C@@H](n2ccc(=O)[nH]c2=O)[C@H](O)[C@@H]1O)[C@H](C)N(C)C(=O)[C@@H](N)Cc1cccc(O)c1

pIC50 [1]: 9.00 | MIC (Pseudomonas aeruginosa [2]): 32 µg/mL (≈ 36.4 µM)
Structure (SMILES): CSCC[C@H](NC(=O)N[C@@H](Cc1c[nH]c2ccccc12)C(=O)O)C(=O)N[C@H](C(=O)N/C=C1\O[C@@H](n2ccc(=O)[nH]c2=O)[C@H](O)[C@@H]1O)[C@H](C)N(C)C(=O)[C@@H](N)Cc1cccc(O)c1

pIC50 [1]: 8.74 | MIC (Pseudomonas aeruginosa [2]): > 128 µg/mL
Structure (SMILES): C[C@@H]([C@H](NC(=O)[C@H](CCCCN)NC(=O)N[C@@H](Cc1c[nH]c2ccccc12)C(=O)O)C(=O)N/C=C1\O[C@@H](n2ccc(=O)[nH]c2=O)[C@H](O)[C@@H]1O)N(C)C(=O)[C@@H](N)Cc1cccc(O)c1

pIC50 [1]: 8.89 | MIC (Pseudomonas aeruginosa [2]): 64 µg/mL (≈ 78.1 µM)
Structure (SMILES): C[C@H](NC(=O)N[C@@H](Cc1c[nH]c2ccccc12)C(=O)O)C(=O)N[C@H](C(=O)N/C=C1\O[C@@H](n2ccc(=O)[nH]c2=O)[C@H](O)[C@@H]1O)[C@H](C)N(C)C(=O)[C@@H](N)Cc1cccc(O)c1

pIC50 [1]: 8.40 | MIC (Pseudomonas aeruginosa [2]): 32 µg/mL (≈ 37.1 µM)
Structure (SMILES): CC(C)C[C@H](NC(=O)N[C@@H](Cc1c[nH]c2ccccc12)C(=O)O)C(=O)N[C@H](C(=O)N/C=C1\O[C@@H](n2ccc(=O)[nH]c2=O)[C@H](O)[C@@H]1O)[C@H](C)N(C)C(=O)[C@@H](N)Cc1cccc(O)c1
